Measurements published in BindingDB's records for patent US20240360157 (Biogen Ma, 2024).

Columns and labels:
Test in all cases: ADP-Glo Kinase Assay
[1] = target: Tyrosine-protein kinase JAK2 (Homo sapiens, UniProt O60674)
Method: (§1) The kinase activity of recombinantly generated catalytic kinase (also known as JH1) domain of human JAK1, JAK2, JAK3 and TYK2 were evaluated in a plate-based assay using the ADP-Glo™ Kinase Assay platform. Specifically, 4 nM of recombinant JAK1 kinase domain is used to phosphorylate 50 μM of a JAK3-342 (sequence ALVDGYFRLTT) peptide in the presence of 35 μM ATP. Catalytic activities of recombinant JAK2, JAK3 and TYK2 kinase domain (0.2, 0.3 and 2 nM, respectively) are evaluated by the phosphorylation status of the JAK3-974 (50 μM; sequence LPLDKDYYVVR) peptide with the addition of ATP (15, 4 and 10 μM, respectively). The reactions proceed for 100 minutes and the catalytic activity is quantified by first depleting the unused ATP, converting the hydrolyzed ADP into ATP to generate luminescence in a luciferase reaction; which is the basis of the ADP-Glo platform. Compounds are tested at either 10 μM or 1 μM top concentration, 11 points of 3-fold dilution.

[2] = target: T1, Tyrosine-protein kinase JAK3 [3-974] (UniProt P52333)
T1 construct: 3-974
T1 sequence (P52333 whole entry): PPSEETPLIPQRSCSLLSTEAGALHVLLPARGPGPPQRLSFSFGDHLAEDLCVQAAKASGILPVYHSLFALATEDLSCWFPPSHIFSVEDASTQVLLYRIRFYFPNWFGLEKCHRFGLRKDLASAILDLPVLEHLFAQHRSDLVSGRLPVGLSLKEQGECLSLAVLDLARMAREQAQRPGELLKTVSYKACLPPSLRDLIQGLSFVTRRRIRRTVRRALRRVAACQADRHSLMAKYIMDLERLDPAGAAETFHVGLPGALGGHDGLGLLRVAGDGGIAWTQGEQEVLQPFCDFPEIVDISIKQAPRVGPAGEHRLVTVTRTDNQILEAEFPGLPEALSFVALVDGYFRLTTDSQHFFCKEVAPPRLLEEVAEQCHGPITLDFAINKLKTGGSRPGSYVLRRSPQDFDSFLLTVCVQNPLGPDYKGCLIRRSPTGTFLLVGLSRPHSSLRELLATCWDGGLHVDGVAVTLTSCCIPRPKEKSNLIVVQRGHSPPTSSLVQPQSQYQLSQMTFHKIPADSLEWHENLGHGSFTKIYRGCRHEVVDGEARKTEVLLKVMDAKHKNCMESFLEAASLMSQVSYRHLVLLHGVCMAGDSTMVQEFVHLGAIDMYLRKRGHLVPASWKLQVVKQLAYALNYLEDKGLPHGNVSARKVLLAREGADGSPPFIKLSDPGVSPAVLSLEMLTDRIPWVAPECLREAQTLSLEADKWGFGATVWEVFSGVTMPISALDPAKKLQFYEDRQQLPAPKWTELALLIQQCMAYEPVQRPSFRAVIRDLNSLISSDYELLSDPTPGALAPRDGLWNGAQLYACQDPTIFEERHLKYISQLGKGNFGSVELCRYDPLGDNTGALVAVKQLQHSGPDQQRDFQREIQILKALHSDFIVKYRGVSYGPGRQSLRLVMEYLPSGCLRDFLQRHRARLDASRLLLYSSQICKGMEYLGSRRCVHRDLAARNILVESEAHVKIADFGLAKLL
Method: as §1

[3] = target: Non-receptor tyrosine-protein kinase TYK2 (Homo sapiens, UniProt P29597)
Chain of Non-receptor tyrosine-protein kinase TYK2 (P29597 whole entry): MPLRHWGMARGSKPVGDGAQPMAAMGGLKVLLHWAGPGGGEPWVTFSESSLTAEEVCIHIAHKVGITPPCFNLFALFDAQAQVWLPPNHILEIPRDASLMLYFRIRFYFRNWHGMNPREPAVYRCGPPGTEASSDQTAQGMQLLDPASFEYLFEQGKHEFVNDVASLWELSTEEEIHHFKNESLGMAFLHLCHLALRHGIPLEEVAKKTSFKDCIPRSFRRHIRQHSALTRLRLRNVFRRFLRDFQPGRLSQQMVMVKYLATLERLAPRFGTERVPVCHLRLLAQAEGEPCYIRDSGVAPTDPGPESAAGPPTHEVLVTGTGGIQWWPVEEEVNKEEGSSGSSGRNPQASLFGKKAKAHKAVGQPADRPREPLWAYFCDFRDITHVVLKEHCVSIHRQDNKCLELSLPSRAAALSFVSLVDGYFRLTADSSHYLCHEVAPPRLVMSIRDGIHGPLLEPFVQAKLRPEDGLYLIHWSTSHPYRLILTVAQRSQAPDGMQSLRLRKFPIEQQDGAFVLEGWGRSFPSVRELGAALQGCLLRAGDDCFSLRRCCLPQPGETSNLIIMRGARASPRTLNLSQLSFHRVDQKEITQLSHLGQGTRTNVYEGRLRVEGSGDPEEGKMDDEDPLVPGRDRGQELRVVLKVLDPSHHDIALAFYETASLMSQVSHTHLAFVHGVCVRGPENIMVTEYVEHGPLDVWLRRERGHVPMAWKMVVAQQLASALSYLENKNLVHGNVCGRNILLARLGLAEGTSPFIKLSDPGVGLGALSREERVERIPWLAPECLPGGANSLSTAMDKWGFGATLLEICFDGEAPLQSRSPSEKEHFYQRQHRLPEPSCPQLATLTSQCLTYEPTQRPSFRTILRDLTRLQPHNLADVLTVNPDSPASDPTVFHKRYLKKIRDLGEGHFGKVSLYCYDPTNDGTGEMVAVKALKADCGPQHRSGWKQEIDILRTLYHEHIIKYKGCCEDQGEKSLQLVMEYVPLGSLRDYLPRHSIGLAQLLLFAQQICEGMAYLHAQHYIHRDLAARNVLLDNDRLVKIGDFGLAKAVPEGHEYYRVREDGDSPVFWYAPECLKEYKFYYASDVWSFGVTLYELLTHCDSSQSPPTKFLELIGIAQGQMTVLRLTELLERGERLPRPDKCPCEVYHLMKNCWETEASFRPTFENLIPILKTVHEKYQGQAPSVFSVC
Method: as §1

[4] = target: Tyrosine-protein kinase JAK1 (Homo sapiens, UniProt P23458)
Chain of Tyrosine-protein kinase JAK1 (P23458 whole entry): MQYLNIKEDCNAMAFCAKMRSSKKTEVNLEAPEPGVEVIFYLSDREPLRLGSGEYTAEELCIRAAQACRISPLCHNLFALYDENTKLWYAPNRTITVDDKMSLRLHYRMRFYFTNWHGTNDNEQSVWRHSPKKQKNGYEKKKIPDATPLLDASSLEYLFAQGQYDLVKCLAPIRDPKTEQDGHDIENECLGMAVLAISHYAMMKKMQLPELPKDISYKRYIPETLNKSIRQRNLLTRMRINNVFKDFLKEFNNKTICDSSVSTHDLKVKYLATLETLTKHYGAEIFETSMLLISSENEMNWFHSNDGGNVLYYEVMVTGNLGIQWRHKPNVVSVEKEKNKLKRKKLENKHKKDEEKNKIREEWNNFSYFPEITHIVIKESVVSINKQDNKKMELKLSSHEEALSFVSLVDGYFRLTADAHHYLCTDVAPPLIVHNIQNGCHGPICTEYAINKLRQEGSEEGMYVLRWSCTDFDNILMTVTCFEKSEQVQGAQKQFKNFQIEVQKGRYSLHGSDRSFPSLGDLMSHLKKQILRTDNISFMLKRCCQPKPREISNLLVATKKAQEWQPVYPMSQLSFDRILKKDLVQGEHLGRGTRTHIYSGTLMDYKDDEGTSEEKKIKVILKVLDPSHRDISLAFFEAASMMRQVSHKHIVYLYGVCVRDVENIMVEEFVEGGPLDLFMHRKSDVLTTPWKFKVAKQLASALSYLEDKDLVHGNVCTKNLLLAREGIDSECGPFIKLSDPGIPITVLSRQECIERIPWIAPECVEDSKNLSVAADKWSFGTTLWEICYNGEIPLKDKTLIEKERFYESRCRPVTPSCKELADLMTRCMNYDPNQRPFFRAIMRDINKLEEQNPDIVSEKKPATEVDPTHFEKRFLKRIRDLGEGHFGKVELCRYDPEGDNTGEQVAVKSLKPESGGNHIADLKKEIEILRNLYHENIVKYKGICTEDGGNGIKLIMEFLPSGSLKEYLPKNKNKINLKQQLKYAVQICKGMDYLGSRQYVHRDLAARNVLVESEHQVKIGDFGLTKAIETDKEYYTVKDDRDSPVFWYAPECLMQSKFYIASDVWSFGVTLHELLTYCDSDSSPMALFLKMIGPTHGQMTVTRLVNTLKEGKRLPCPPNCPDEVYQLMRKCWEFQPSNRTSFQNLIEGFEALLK
Method: as §1

Chain of Tyrosine-protein kinase JAK2 (O60674 whole entry, the tested form may be a part): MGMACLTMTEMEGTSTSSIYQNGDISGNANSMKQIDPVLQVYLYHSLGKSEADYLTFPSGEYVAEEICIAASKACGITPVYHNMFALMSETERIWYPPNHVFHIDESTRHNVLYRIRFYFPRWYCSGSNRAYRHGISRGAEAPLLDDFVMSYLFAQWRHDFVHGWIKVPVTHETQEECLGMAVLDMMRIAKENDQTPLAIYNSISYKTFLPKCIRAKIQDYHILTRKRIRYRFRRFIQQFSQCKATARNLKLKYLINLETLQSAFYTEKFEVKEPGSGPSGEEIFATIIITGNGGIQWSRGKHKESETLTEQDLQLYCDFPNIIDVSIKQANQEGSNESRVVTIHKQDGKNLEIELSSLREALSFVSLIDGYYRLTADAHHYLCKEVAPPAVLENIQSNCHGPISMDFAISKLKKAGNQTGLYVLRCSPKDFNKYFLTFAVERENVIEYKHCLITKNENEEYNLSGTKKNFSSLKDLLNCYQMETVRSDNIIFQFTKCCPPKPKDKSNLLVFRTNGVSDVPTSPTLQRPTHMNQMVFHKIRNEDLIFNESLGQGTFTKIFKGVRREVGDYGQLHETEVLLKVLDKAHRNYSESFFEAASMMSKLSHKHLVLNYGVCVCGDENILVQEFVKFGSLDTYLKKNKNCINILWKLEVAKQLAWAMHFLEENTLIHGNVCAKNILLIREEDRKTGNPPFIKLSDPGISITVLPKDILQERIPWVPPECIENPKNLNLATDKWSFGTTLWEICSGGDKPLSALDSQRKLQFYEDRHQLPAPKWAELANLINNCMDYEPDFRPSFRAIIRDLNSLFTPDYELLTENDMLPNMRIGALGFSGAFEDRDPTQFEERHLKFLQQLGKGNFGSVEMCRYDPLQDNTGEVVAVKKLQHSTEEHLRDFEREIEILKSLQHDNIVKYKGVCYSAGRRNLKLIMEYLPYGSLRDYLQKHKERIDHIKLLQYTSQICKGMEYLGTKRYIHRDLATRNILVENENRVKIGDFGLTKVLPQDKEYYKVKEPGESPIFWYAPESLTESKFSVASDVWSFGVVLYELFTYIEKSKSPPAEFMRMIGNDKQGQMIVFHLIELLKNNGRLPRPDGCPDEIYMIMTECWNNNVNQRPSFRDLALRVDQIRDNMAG

Cn1cc(-c2cc3c(N4CC5CCC(C4)N5C(=O)[C@@H]4CC4(F)F)ccnc3[nH]2)cn1 [US20240360157, Example 239] gave an IC50 [1] of 8 nM, an IC50 [2] of 114 nM and an IC50 [3] of 0.2 nM. The IC50 [4] was 18 nM.
COc1cc(-c2cc3c(N4CC5CCC(C4)N5C(=O)[C@@H]4C[C@H]4F)ccnc3[nH]2)c(F)cn1 [US20240360157, Example 246] showed an IC50 [1] of 53 nM, an IC50 [2] of 992 nM and an IC50 [3] of 5.1 nM. It also gave an IC50 [4] of 76 nM.
